{"source": "patent US8716294B2", "about": "“Methods for treating inflammatory conditions” (Melior Discovery, Inc., priority 2006, dated 2014)", "type_in_all_cases": "in vivo", "key": {"ICR:CD1 male mice [1]": {"test_system": "ICR:CD1 male mice", "assay": "Delayed-type hypersensitivity (DTH), sheep red blood cell challenge, footpad swelling", "details": "SRBC challenge into footpad, all three doses (10, 30, 100 mg/kg)", "description": "In this study, tenilsetam was assessed for its ability to affect the delayed-type hypersensitivity (DTH) reactions. DTH reactions are antigen-specific cell-mediated immune responses that can mediate harmful (e.g., allergic dermatitis and autoimmunity) aspects of immune function. The immune reaction induced by the method described below is characterized by swelling at the site of challenge and by an infiltration of monocytes/macrophages and lymphocytes into the epidermis and dermis. This model for skin DTH reactions has been used widely to monitor cell-mediated immune responses in vivo. […] (dexamethasone), a steroid anti-inflammatory, reduces cell-mediated immune responses and was employed to pharmacologically validate the assay.\nMaterials and Methods. ICR:CD1 male mice (Harlan) 12 to 13 weeks of age were used for this study. Animals were kept on a 12 hr light dark cycle and fed ad libitum. On day 1 of the study, mice were injected IV with 1×10^6 of washed sheep red blood cells in a volume of 200 μL. Mice were administered tenilsetam on day 6. […]\nOn day 7, mice were re-administered drug as above. Footpad thickness of both the back right and back left foot pads was measured using a digital micrometer. […]\nData are expressed as the average±SEM. Data were averaged and analyzed by ANOVA followed by a post-hoc Tukey's test with a p value of less then 0.05 indicating a statistical difference. […]"}, "ICR:CD1 male mice [2]": {"test_system": "ICR:CD1 male mice", "assay": "Oxazolone contact hypersensitivity (contact dermatitis), ear redness and thickness", "details": "all three doses (10, 30, 100 mg/kg)", "description": "Contact Hypersensitivity (Contact Dermatitis). Contact hypersensitivity (CHS)^3 is a T cell-mediated cutaneous immune/inflammatory reaction to haptens. Oxazolone can be used to evoke a contact hypersensitivity reaction and produce an animal model of contact dermatitis. Tenilsetam was assessed for its ability to affect oxazolone mediated contact dermatitis reaction.\nMaterials and Methods. ICR:CD1 male mice (Harlan) 12 to 13 weeks of age were used for this study. Animals were kept on a 12 hr light dark cycle and fed ad libitum.\nOxazolone sensitization. Mice were exposed to 50 μL of 3% oxazolone (in 100% ethanol) via topical application to the skin of the abdomen. Additional exposure was via the 4 paws with a small amount of oxazolone.\nOxazolone challenge. On day 5, both ears of mice were exposed to 1% oxazolone (20 μL per ear; 10 μL/side of ear).\nAnalysis. On day 6, ears were scored for redness on a 0-3 scoring basis and were measured for thickness using a micrometer. These values were recorded, group values were averaged and statistical differences determined by ANOVA followed by a Mann-Whitney U-test (for visual score) or by Tukey's test (for ear thickness). A p value of less than 0.05 was used to indicate statistical significance.\nFor this study, there were 5 groups: vehicle, and tenilsetam at 3 dose levels: 10, 30 and 100 mg/kg. In addition, there was a dexamethasone group. […]"}, "TNFα": {"test_system": "TNFα", "assay": "Lipopolysaccharide general inflammation / septic shock model, TNFα by ELISA", "details": "mice, LPS 0.25 mg/kg ip, blood 90 minutes after LPS; doses of 10 and 30 mg/kg, given 15 minutes prior to LPS; FIG. 3", "source_text": "Lipopolysaccharide General Inflammation. Bolus injection of lethal or sublethal doses of lipopolysaccharide (LPS; the major component of bacterial cell wall) results in the rapid and transient rise in tumor necrosis factor (TNFα) levels in serum in mammals. This animal model was developed to mirror certain aspects of septic shock in humans. This model is also an effective first-line general inflammation model and may be used to determine the anti-inflammatory potential of test compounds.\nMaterials and methods. Male ICR:CD1 mice (Harlan Sprague Dawley, Indianapolis, Ind.) 9 to 10 weeks of age were housed three per cage, kept on a standard 12 hr light cycle and fed western (high-fat) diet for 5.5 weeks for these studies. Mice were provided food and water ad libitum.\nLipopolysaccharide (heat killed E. coli 0127:B5; SigmaAldrich) was prepared in water at a concentration of 0.025 mg/ml. LPS was dosed at a volume of 10 ml/kg (ip) to produce a final dose of 0.25 mg/kg or 7.5 μg/mouse. […] Plasma was prepared from blood and TNFα levels determined by ELISA as described below.\nSerum TNFα levels were determined using the OptEIA™ mouse TNFα ELISA kit (BD Biosciences) as per directions of the manufacturer. Data were averaged and analyzed by ANOVA followed by a post-hoc Tukey's test with a p value of less then 0.05 indicating a statistical difference. […]"}}, "data": [{"smiles": "O=C1NCCNC1c1cccs1", "note": "(racemic) [Tenilsetam, (+/−)-3-(2-thienyl)-2-piperazinone]", "values": [{"measurement": "foot swelling by visual examination", "setting": "ICR:CD1 male mice [1]", "value": "significantly decreased"}, {"measurement": "foot swelling as measured using a micrometer", "setting": "ICR:CD1 male mice [1]; FIG. 1", "value": "significantly decreased"}, {"measurement": "ear swelling after oxazolone challenge, visual scoring", "setting": "ICR:CD1 male mice [2]; day 6, 0-3 redness score, FIG. 2A", "value": "significantly decreased"}, {"measurement": "ear swelling after oxazolone challenge, ear thickness measurements", "setting": "ICR:CD1 male mice [2]; day 6, micrometer, FIG. 2B", "value": "significantly decreased"}, {"measurement": "TNFα levels", "setting": "TNFα", "value": "decreased"}]}]}
